In patent publication US20260234157A1, “COMPOUND AND METHOD FOR TARGETED DEGRADATION OF ANDROGEN RECEPTOR” (Gan & Lee Pharmaceuticals Co., Ltd., priority 2023, published 2026):
Where a chain is given by its changes, count along the chain named. Read-outs that look alike come from different tables or passages of the source.

Experiments:
Assay type in all cases: cell-based
VCaP cells = test: Inhibition of proliferation of VCaP cells (WST-8); conditions: Homo sapiens, read-out: IC50 for inhibiting the proliferation of VCaP cells
Experimental: The inhibitory activity of the compounds disclosed in the present disclosure on the proliferation of VCaP cells
On the first day of the experiment, […] were inoculated in 96 well plates at a density of 15000 cells per well using DMEM medium containing 10% fetal bovine serum, with 100 μL of cell suspension per well. The cells were cultured in a cell culture incubator with 5% CO2 at 37° C. overnight. […] On the ninth day, 96 well plates were taken out, and 20 μL of WST-8 (Beytime, C0040) reagent was added to each well.

AR protein [1] = target: T1, AR protein (Homo sapiens, UniProt P10275); test: Degradation of AR protein in VCaP cells (Western blot); conditions: 8 hours; for inhibition at 0.01 µM: read-out: Degradation rate of the AR protein in VCaP cells, 10 nM (%); for inhibition at 0.1 µM: read-out: Degradation rate of the AR protein in VCaP cells, 100 nM (%)
T1 construct: degradation activity of the compounds disclosed in the present disclosure on AR protein in VCaP cells; host or cells: VCaP
T1 sequence (P10275 1-920): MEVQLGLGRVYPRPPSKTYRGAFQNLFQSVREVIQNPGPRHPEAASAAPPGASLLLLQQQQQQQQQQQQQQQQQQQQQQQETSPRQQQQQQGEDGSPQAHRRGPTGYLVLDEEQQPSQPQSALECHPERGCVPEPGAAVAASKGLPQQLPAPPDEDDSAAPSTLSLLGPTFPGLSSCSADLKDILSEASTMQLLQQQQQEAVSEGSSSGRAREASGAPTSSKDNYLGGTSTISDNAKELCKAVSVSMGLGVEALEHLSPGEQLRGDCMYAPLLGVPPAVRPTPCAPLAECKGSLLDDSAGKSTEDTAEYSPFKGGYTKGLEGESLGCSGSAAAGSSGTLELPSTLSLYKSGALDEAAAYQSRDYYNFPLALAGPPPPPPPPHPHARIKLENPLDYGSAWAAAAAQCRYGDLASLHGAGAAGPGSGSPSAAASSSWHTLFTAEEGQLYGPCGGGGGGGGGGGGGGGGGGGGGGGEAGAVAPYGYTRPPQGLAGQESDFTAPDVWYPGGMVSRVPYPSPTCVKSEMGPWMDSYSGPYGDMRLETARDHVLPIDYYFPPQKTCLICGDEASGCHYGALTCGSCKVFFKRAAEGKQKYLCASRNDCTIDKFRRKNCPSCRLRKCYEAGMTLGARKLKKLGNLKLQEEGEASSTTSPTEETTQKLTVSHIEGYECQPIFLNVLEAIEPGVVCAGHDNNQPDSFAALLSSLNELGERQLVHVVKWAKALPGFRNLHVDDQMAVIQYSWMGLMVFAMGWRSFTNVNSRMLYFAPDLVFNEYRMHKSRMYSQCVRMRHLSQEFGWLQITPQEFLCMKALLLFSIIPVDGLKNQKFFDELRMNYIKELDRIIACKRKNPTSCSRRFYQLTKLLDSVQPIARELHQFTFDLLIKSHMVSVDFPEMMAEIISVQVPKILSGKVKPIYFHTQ
Outline: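 Western blot readout: AR band grayscale normalised to GAPDH, used to derive degradation rate. Lysates came from VCaP cells exposed to compound for 8 h, with solvent controls run in parallel.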

LNCaP FGC cells = test: Inhibition of proliferation of LNCaP cells (WST-8); conditions: Homo sapiens, LNCaP, 96 h
Experimental: The cells were cultured in a cell culture incubator with 5% CO2 at 37° C. overnight. […] On the sixth day, 96 well plates were taken out, and 20 μL of WST-8 (Beytime, C0040) reagent was added to each well.

AR protein [2] = target: T2, AR protein (Homo sapiens, UniProt P10275, T878A); test: Degradation of AR protein in LNCaP cells (Western blot); conditions: for inhibition at 0.01 µM: read-out: Degradation rates of the AR protein in LNCaP cells, 10 nM (%); for inhibition at 0.1 µM: read-out: Degradation rates of the AR protein in LNCaP cells, 100 nM (%)
T2 construct: degradation activity of the compounds disclosed in the present disclosure on AR protein in LNCaP cells; host or cells: LNCaP FGC
T2 sequence (P10275 1-920 T878A): T1 sequence (P10275 1-920) with T878A
Outline: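 Percent AR degradation was derived from GAPDH-normalised Western blot band intensities (infrared detection) in LNCaP lysates.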

[3] = VCaP cells, 168 hours, WST-8 absorbance at 450 nm
[4] = LNCaP FGC cells, 96 hours, WST-8 absorbance at 450 nm, read-out: IC50 for inhibiting the proliferation of LNCaP cells
[5] = LNCaP cells, compound 10 nM, 8 hours, Western blot grayscale, GAPDH internal reference
[6] = LNCaP cells, compound 100 nM, 8 hours, Western blot grayscale, GAPDH internal reference
[7] = read-out: IC50 for inhibiting the proliferation of LNCaP cells, LNCaP FGC cells, 96 hours, WST-8 absorbance at 450 nm

Structure (SMILES) | IC50 (VCaP cells; [3]) [nM] | inhibition at 0.01 µM (AR protein [1]; compound at 10 nM) [%] | inhibition at 0.1 µM (AR protein [1]; compound at 100 nM) [%] | IC50 (LNCaP FGC cells; [4]) [nM] | inhibition at 0.01 µM (AR protein [2]; [5]) [%] | inhibition at 0.1 µM (AR protein [2]; [6]) [%] | IC50 (VCaP cells; VCaP, 168 h) [nM] | IC50 (LNCaP FGC cells; [7]) [nM] | inhibition at 0.01 µM (AR protein [2]; LNCaP, 8 h) [%] | inhibition at 0.1 µM (AR protein [2]; LNCaP, 8 h) [%] | Degradation rate of the AR protein in VCaP cells, 10 nM (%) (AR protein [1]; compound at 10 nM) | Degradation rate of the AR protein in VCaP cells, 100 nM (%) (AR protein [1]; compound at 100 nM)
CC1(CN2CCC3(CC2)COc2c3ccc3c2C(=O)N(C2CCC(=O)NC2=O)C3=O)CCN(c2ncc(C(=O)NC3CCC(Oc4ccc(C#N)c(Cl)c4)CC3)cn2)CC1 (centres unmarked) [Compound 245] | 100 | 3 | 43 | 1820 | 2 | 45 |  |  |  |  |  | 
N#Cc1ccc(O[C@H]2CC[C@H](NC(=O)c3ccc(N4CC(CN5CCC6(CC5)COc5cc7c(cc56)C(=O)N(C5CCC(=O)NC5=O)C7=O)C4)nn3)CC2)cc1Cl (some centres unmarked) [Compound 55] | 83 | 77 | 80 | 1000 | 44 | 69 |  |  |  |  |  | 
N#Cc1ccc(O[C@H]2CC[C@H](NC(=O)c3ccc(N4CCC5(CC4)CC(N4CCC6(CCc7ccc8c(c7O6)CN(C6CCC(=O)NC6=O)C8=O)CC4)C5)nn3)CC2)cc1Cl (some centres unmarked) [Compound 154] | 10 | 75 | 86 | 39400 | 46 | 48 |  |  |  |  |  | 
N#Cc1ccc(O[C@H]2CC[C@H](NC(=O)c3ccc(N4CCC(CN5CCC6(CC5)Oc5cc7c(cc5CC6(F)F)C(=O)N(C5CCC(=O)NC5=O)C7=O)CC4)nn3)CC2)cc1Cl (some centres unmarked) [Compound 18] | 110 | 59 | 69 | 4940 | 7 | 57 |  |  |  |  |  | 
N#Cc1ccc(O[C@H]2CC[C@H](NC(=O)c3ccc(N4CCC5(CCC(N6CCC7(CC6)COc6cc8c(cc67)C(=O)N(C6CCC(=O)NC6=O)C8=O)CC5)CC4)nn3)CC2)cc1Cl (some centres unmarked) [Compound 51] | 18 | 83 | 90 | 400 | 13 | 49 |  |  |  |  |  | 
COc1cc(O[C@H]2C(C)(C)[C@H](NC(=O)c3ccc(N4CCC(C)(CN5CC6(CCc7cc8c(cc7O6)C(=O)N(C6CCC(=O)NC6=O)C8=O)C5)CC4)cc3)C2(C)C)ccc1C#N (some centres unmarked) [Compound 291] | 47 | 21 | 53 | 2880 | 9 | 57 |  |  |  |  |  | 
N#Cc1ccc(O[C@H]2CC[C@H](NC(=O)c3ccc(N4CC(N5CCC6(CC5)Oc5cc7c(cc5CC6(F)F)C(=O)N(C5CCC(=O)NC5=O)C7=O)C4)nn3)CC2)cc1Cl (some centres unmarked) [Compound 37] |  |  |  |  |  |  | 3230 | 4530 | 5 | 29 |  | 
N#Cc1ccc(O[C@H]2CC[C@H](NC(=O)c3ccc(N4CCC(N5CCC(C(=O)N6CCC7(CC6)COc6c7ccc7c6CN(C6CCC(=O)NC6=O)C7=O)CC5)CC4)nn3)CC2)cc1Cl (some centres unmarked) [Compound 160] | 2 |  |  | 59900 | 67 | 76 |  |  |  |  |  | 
N#Cc1ccc(O[C@H]2CC[C@H](NC(=O)c3ccc(N4CCC(N5CCC6(CC5)CC(F)(F)c5cc7c(cc5O6)C(=O)N(C5CCC(=O)NC5=O)C7=O)CC4)nn3)CC2)cc1Cl (some centres unmarked) [Compound 38] |  |  |  |  |  |  | 5290 | 2400 | 29 | 48 |  | 
N#Cc1ccc(O[C@H]2CC[C@H](NC(=O)c3ccc(N4CCC5(CC4)COc4cc6c(cc4O5)C(=O)N(C4CCC(=O)NC4=O)C6=O)nn3)CC2)cc1Cl (some centres unmarked) [Compound 75] | 7400 |  |  | 6050 | 41 | 36 |  |  |  |  |  | 
N#Cc1ccc(O[C@H]2CC[C@H](NC(=O)c3ccc(N4CCC(C(=O)N5CCC(N6CCC7(CC6)COc6c7ccc7c6CN(C6CCC(=O)NC6=O)C7=O)CC5)CC4)nn3)CC2)cc1Cl (some centres unmarked) [Compound 161] | 3 |  |  | 440 |  |  |  |  |  |  | 47 | 84
N#Cc1ccc(O[C@H]2CC[C@H](NC(=O)c3ccc(N4CCN(C5CCC6(CCc7cc8c(cc7O6)C(=O)N(C6CCC(=O)NC6=O)C8=O)CC5)CC4)nn3)CC2)cc1Cl (some centres unmarked) [Compound 29] | 1200 |  |  | 930 | 35 | 63 |  |  |  |  |  | 
CC1(C)C(=O)N(c2ccc(C#N)c(C(F)(F)F)c2)C(=S)N1c1ccc(C(=O)N2CC[C@H](CN3CCC4(CC3)COc3cc5c(cc34)C(=O)N(C3CCC(=O)NC3=O)C5=O)C2)c(F)c1 (some centres unmarked) [Compound 125] |  |  |  |  |  |  | 9290 | 6970 |  |  |  | 
COC1(CN2CCC3(CC2)COc2c(ccc4c2C(=O)N(C2CCC(=O)NC2=O)C4)C3)CCN(c2ccc(C(=O)NC3CCC(Oc4ccc(C#N)c(Cl)c4)CC3)nn2)CC1 (centres unmarked) [Compound 186] | 20 |  |  | 850 |  |  |  |  |  |  |  | 
CC1(C)C(=O)N(c2ccc(C#N)c(C(F)(F)F)c2)C(=S)N1c1ccc(C(=O)N2CCC3(CCC(N4CCC5(CC4)COc4cc6c(cc4C5)C(=O)N(C4CCC(=O)NC4=O)C6=O)CC3)CC2)c(F)c1 (centres unmarked) [Compound 113] |  |  |  |  |  |  | 2810 | 5560 |  |  |  | 
N#Cc1ccc(O[C@H]2CC[C@H](NC(=O)c3ccc(N4CC5(CCC(N6CCC(N7CCC8(CC7)COc7c8ccc8c7CN(C7CCC(=O)NC7=O)C8=O)CC6)CC5)C4)nn3)CC2)cc1Cl (some centres unmarked) [Compound 175] |  |  |  |  |  |  | 10 | 8070 |  |  |  | 
